The values below come from US20010020032A1, “COATED PARTICLE FORMULATION” (priority 1996, published 2001).

The nature of data set [1]: Polymorphic stability of Form II on solvent contact. It counts as physicochemical. The conditions noted are these: contact with methylene chloride.
Data set [2] can be described thus: Detection of radiolabelled compound in saliva. Type of data set: in vivo. As to the method:
Olanzapine is effective over a wide dosage range, the actual dose administered being dependent on the condition being treated. For example, in the treatment of adult humans, dosages of from about 0.25 to 50 mg, preferably from 1 to 30 mg, and most preferably 1 to 25 mg per day may be used. A once a day dosage is normally sufficient, although divided doses may be administered. For treatment of central nervous system disorders, a dose range of from 1 to 30 mg, preferably 1 to 25 mg per day is suitable.

The nature of data set [3]: Stability studies: discoloration on storage or excipient contact. Type of data set: physicochemical. As to conditions: olanzapine substance in contact with polyethylene glycol, particularly under moist conditions.

Consider `Cc1cc2c(s1)Nc1ccccc1N=C2N1CCN(C)CC1` [Form II, 2-methyl-4-(4-methyl-1-piperazinyl)-10H-thieno[2,3-b][1,5]benzodiazepine], for which the “conversion to other polymorphic forms” value in data set [1] is listed as “can be converted to less desirable polymorphic forms”.
Consider `Cc1cc2c(s1)Nc1ccccc1N=C2N1CCN(C)CC1` [Radiolabelled Form II, 2-methyl-4-(4-methyl-1-piperazinyl)-10H-thieno-[2,3-b][1,5]benzodiazepine], for which the detection in saliva result in data set [2] is listed as “can be detected in the saliva”.
For `Cc1cc2c(s1)Nc1ccccc1N=C2N1CCN(C)CC1` [olanzapine, 2-methyl-4-(4-methyl-1-piperazinyl)-10H-thieno[2,3-b][1,5] benzodiazepine], the “discoloration on polyethylene glycol contact” value in data set [3] is reported as “produces undesired discoloration”.
